Each structure is given as a SMILES string.

For series [1] the following is noted: De Marchi et al., Journal of Pharmaceutical Sciences 1971 60 (11); cited from earlier work.
The test system of a further series is female NMRI mice. Briefly: 6 Hz corneal stimulation psychomotor seizure model (anticonvulsant properties). It is filed as in vivo. To be noted: Mus musculus, 32 mA, 3 s corneal stimulation, N=8/group, read-out: ED50 (dose that would give a 50% protection from seizures). The protocol: The evaluation of the anticonvulsant properties was carried out in female NMRI mice (20-25 g, Taconic, Denmark). The mice were housed in groups (8 per cage according to weight) with food and water available ad libitum The environment was temperature (20±2° C.) and humidity (55±15%) controlled, and consisted of a 12:12 h light-dark cycle (lights on 06:00 h). The experiments were performed according to the Danish Committee for Experiments on Animals. Psychomotor seizures were induced via corneal stimulation (6 Hz, 0.2 ms rectangular pulses at 32 mA for 3 s) using a Grass S48 stimulator, constant current unit (CCU1) and isolation unit (SIU5), all driven by a stimulus generator (Master-8, AMPI, Israel).
The pads of the corneal stimulator were soaked in 0.9% saline. The mice were restrained during corneal stimulation and released immediately after and observed for the presence or absence of seizure activity.
The duration of any of these seizure variables is 10-75 seconds. In the presence of any of the seizure variables the mice was labelled 0% protection, and if none of the above, the mice was labelled 100% protection.
For screening purposes, the test compound was tested at 1 dose at 1 time-point. In the case of protection of 3 or more out of 8 mice, the compound were further evaluated in dose response (N=8/group). […]

As for `NC(=O)CN1C(=O)OCc2ccccc21` [2-(2-oxo-4H-benzo[d][1,3]oxazin-1-yl)-acetamide], the anticonvulsant activity entry in series [1] was “biologically inactive”.
Usually melting point stands for the temperature, or range, at which the solid turns liquid. Usually ED50 stands for the dose that gives a 50% effect, or the effect in half of the subjects. With `NC(=O)CN1C(=O)OCc2cc(Br)ccc21` [Compound 1, 2-(6-bromo-2-oxo-4H-3,1-benzoxazin-1-yl)acetamide], the melting point was in the range of 253.4 to 254.3 °C. In the series with female NMRI mice, the median effective dose (ED50) amounted to 13 mg/kg.

These data come from patent US20120071471A1, “NOVEL BENZOXAZINONE DERIVATIVES USEFUL FOR THE TREATMENT OF CNS DISORDERS” (NEUROSEARCH A/S, priority 2009, published 2012).
